Data: publication PMC9617636 (Antiviral Research, 2022)
pEC50: −log10 of the molar value. Where two headings read alike, the source gives them in different places.

Columns and labels:
in vitro [1] = conditions: human
in vitro [2] = conditions: African green monkey
B.1.1.7 SARS-CoV-2 = assay: Antiviral assay in Calu3 cells; type: cell-based
in vitro [3] = conditions: dog
SARS-CoV-2 nucleocapsid = type: cell-based
[4] = test system: −1 PRF signal of SARS-CoV-2; type: cell-based
Mucilair tissues = type: cell-based, human; conditions: MTS assay at 96hpi, 30 μg/tissue
SARS-CoV-2 viral RNA = type: cell-based
A549 cells = type: cell-based; conditions: 600 μM
SARS-CoV-2 GFP = type: cell-based
SARS-CoV-2 [5] = assay: Antiviral plaque assay in Vero-E6 cells; type: cell-based
Influenza A virus (H1N1) = assay: Antiviral activity against Influenza A virus; type: cell-based, Influenza virus A/Netherlands/602/2009
SARS-CoV-2 [6] = type: cell-based
in vitro [7] = conditions: human; remark: listed apart in the source
HCoV-229e = assay: microbe, parasite or virus in culture; type: cell-based; conditions: Human coronavirus 229E
Vero-E6 cells = conditions: listed as of SARS-CoV-2 B.1.1.7 (Alpha)
[8] = CC50, row of SARS-CoV-2 B.1.1.7 (Alpha)
[9] = Severe acute respiratory syndrome coronavirus 2, Calu-3, read-out: EC50 (95% CI)
[10] = Severe acute respiratory syndrome coronavirus 2, Vero C1008, read-out: EC50 (95% CI)
[11] = Severe acute respiratory syndrome coronavirus 2, Vero C1008, read-out: EC90 (95% CI), SARS-CoV-2 B.1.1.7 (Alpha), Vero-E6

Compound: CN[C@@H]1[C@@H](O)[C@@H](O[C@@H]2[C@@H](O)[C@H](O[C@H]3O[C@H]([C@@H](C)O)[C@@H](O)[C@H](O)[C@H]3N)[C@@H](N)C[C@H]2N)OC[C@]1(C)O [Geneticin]
- CC50 (in vitro [1]): 684 µM
- CC50 (in vitro [2]; [8]): 3950 µM
- CC50 (in vitro [2]; CC50, row of SARS-CoV-2 B.1.351 (Beta)): 3950 µM
- CC50 (in vitro [2]; CC50, row of SARS-CoV-2 B.1.617.2 (Delta)): 3950 µM
- CC50 (in vitro [2]; CC50, row of SARS-CoV-2 BA.1 (Omicron)): 934 µM
- pEC50 (B.1.1.7 SARS-CoV-2; [9]): 3.79
- CC50 (in vitro [3]): 5840 µM
- viral protein production (nucleocapsid over alpha tubulin) (SARS-CoV-2 nucleocapsid): decrease in viral protein production
- −1 PRF efficiency [4]: reduction in the −1 PRF efficiency
- viability of the tissues (Mucilair tissues): without a decrease in viability
- viral RNA replication (SARS-CoV-2 viral RNA): inhibition of viral RNA replication
- protein synthesis in the cell (A549 cells): not impaired
- GFP intensity in the infected cells (SARS-CoV-2 GFP): significantly reduced
- number of infected (GFP positive) cells (SARS-CoV-2 GFP): marked reduction in the number of infected cells
- pEC50 (SARS-CoV-2 [5]; [10]): 4.33
- pEC50 (SARS-CoV-2 [5]; Severe acute respiratory syndrome coronavirus 2, Vero C1008, read-out: EC50 (95% CI), SARS-CoV-2 B.1.160, Vero-E6): 4.50
- pEC50 (SARS-CoV-2 [5]; Severe acute respiratory syndrome coronavirus 2, Vero C1008, read-out: EC50 (95% CI), SARS-CoV-2 B.1.177, Vero-E6): 3.99
- pEC50 (SARS-CoV-2 [5]; Severe acute respiratory syndrome coronavirus 2, Vero C1008, read-out: EC50 (95% CI), SARS-CoV-2 B.1.258, Vero-E6): 4.37
- pEC50 (SARS-CoV-2 [5]; Severe acute respiratory syndrome coronavirus 2, Vero C1008, read-out: EC50 (95% CI), SARS-CoV-2 B.1.617.2 (Delta), Vero-E6): 4.48
- pEC50 (SARS-CoV-2 [5]; Severe acute respiratory syndrome coronavirus 2, Vero C1008, read-out: EC50 (95% CI), SARS-CoV-2 BA.1 (Omicron), Vero-E6): 4.59
- EC90 (SARS-CoV-2 [5]; [11]): 245 µM
- EC90 (SARS-CoV-2 [5]; Severe acute respiratory syndrome coronavirus 2, Vero C1008, read-out: EC90 (95% CI), SARS-CoV-2 B.1.160, Vero-E6): 150 µM
- EC90 (SARS-CoV-2 [5]; Severe acute respiratory syndrome coronavirus 2, Vero C1008, read-out: EC90 (95% CI), SARS-CoV-2 B.1.177, Vero-E6): 407 µM
- EC90 (SARS-CoV-2 [5]; Severe acute respiratory syndrome coronavirus 2, Vero C1008, read-out: EC90 (95% CI), SARS-CoV-2 B.1.258, Vero-E6): 163 µM
- EC90 (SARS-CoV-2 [5]; Severe acute respiratory syndrome coronavirus 2, Vero C1008, read-out: EC90 (95% CI), SARS-CoV-2 B.1.351 (Beta), Vero-E6): 542 µM
- EC90 (SARS-CoV-2 [5]; Severe acute respiratory syndrome coronavirus 2, Vero C1008, read-out: EC90 (95% CI), SARS-CoV-2 B.1.617.2 (Delta), Vero-E6): 201 µM
- EC90 (SARS-CoV-2 [5]; Severe acute respiratory syndrome coronavirus 2, Vero C1008, read-out: EC90 (95% CI), SARS-CoV-2 BA.1 (Omicron), Vero-E6): 155 µM
- pEC50 (Influenza A virus (H1N1); read-out: EC50 (95% CI)): < 3.22
- antiviral activity against Influenza A virus (H1N1) (Influenza A virus (H1N1); unrelated virus): lack of activity
- protection from viral infection (apical viral RNA and plaque titre) (SARS-CoV-2 [6]): significant protection from viral infections
- CC50 (in vitro [7]): > 600 µM
- pEC50 (HCoV-229e; Huh-7, read-out: EC50 (95% CI)): 5.14
- EC90 (HCoV-229e; Huh-7, read-out: EC90 (95% CI)): 23.9 µM

Compound: Sotrovimab
- pEC50 (B.1.1.7 SARS-CoV-2; read-out: EC50 (95% CI)): 8.39
- CC50 (Calu3 cells): > 0.68 µM
- pEC50 (SARS-CoV-2 [5]; read-out: EC50 (95% CI)): 9.89
- EC90 (SARS-CoV-2 [5]; read-out: EC90 (95% CI), SARS-CoV-2 B.1.1.7 (Alpha), Vero-E6): 0.0042 µM
- CC50 (Vero-E6 cells): > 0.68 µM

Compound: CCNCC1CCN(c2c(F)cc3c(=O)c(C(=O)O)cn(CC)c3c2F)C1 (stereo not shown) [Merafloxacin]
- CC50 (in vitro [2]; [8]): > 100 µM
- pEC50 (B.1.1.7 SARS-CoV-2; [9]): 4.66
- viral protein production (nucleocapsid over alpha tubulin) (SARS-CoV-2 nucleocapsid): decrease in viral protein production
- −1 PRF efficiency [4]: reduction in the −1 PRF efficiency
- viral RNA replication (SARS-CoV-2 viral RNA): inhibition of viral RNA replication
- pEC50 (SARS-CoV-2 [5]; [10]): 4.63
- EC90 (SARS-CoV-2 [5]; [11]): 116 µM
- CC50 (in vitro [7]): > 100 µM
